{"source": "patent US8241903B2", "about": "“Catecholamine receptor modulation” (Yeda Research and Development Co., Ltd., priority 2006, dated 2012)", "molecules": {"B1": {"name": "G-CSF: myeloid cytokine, granulocyte colony-stimulating factor (Filgrastim, Roche) (protein, chains of the INN, looked up)", "chain": "MTPLGPASSLPQSFLLKCLEQVRKIQGDGAALQEKLCATYKLCHPEELVLLGHSLGIPWAPLSSCPSQALQLAGCLSQLHSGLFLYQGLLQALEGISPELGPTLDTLQLDVADFATTIWQQMEELGMAPALQPTQGAMPAFASAFQRRAGGVLVASHLQSFLEVSYRVLRHLAQP"}}, "key": {"cord blood CD34+ cells [1]": {"system": "cord blood CD34+ cells", "test": "Progenitor colony forming assay (CFU) in semi solid cultures", "format": "cell-based, human", "details": "for colony (CFU-C) formation in the presence of GM-CSF: IL-3 plus GM-CSF 5 ng/ml, scored day 14; for colony (CFU-C) formation in the presence of GM-CSF / colony formation, culture not supplemented with myeloid cytokines: SKF 1 μM or 7-OH-DPAT 100 nM; for colony formation, culture not supplemented with myeloid cytokines: no GM-CSF or G-CSF; for clonogenic capacity of human cord blood CD34+ cells: epinephrine 10 nM, norepinephrine 1 and 10 nM added to the methyl cellulose", "experimental": "(vii) Progenitor colony forming assay (CFU). In order to detect the levels of human progenitors, semisolid cultures were carried out as previously described (Peled et al. 1999). In brief, CD34^+ cells (1×10^3 cells/ml) were plated in 0.9% methylcellulose (Sigma), 30% FCS, 5×10^−5M 2ME, 50 ng/ml SCF, 5 ng/ml IL-3, 5 ng/ml GM-CSF (R&D), and 2 u/ml Erythropoietin (Orto Bio Tech, Don Mills, Canada) together with the dopamine agonists/antagonist. In some experiments the cells were pre-incubated for 4 days with the agonists/antagonist prior to plating in the semisolid culture. The cultures were incubated at 37° C. in a humidified atmosphere containing 5% CO2 and scored 14 days later for myeloid or erythroid colonies by morphologic criteria. In experiments where the level of in vivo engraftment by primitive human cells was determined, the semisolid media contained 15% human plasma and 15% FCS.\nGM-CSF and G-CSF are known for their role in myeloid differentiation and in stem cell regulation. It is common practice to add these cytokines to progenitor colony forming assay (CFU) in order to facilitate detection of human progenitors. […] We therefore tested whether up regulation of dopamine receptor levels affects progenitor development in vitro. For this purpose cord blood CD34^+ cells were seeded in semi solid cultures (1×10^3 cells/ml in 1 ml) supplemented with the cytokines Epo (2 u/ml; Orto Bio Tech, Don Mills, Canada.), SCF (50 ng/ml; R&D) and IL-3 (5 ng/ml R&D) and with GM-CSF (5 ng/ml; R&D) or G-CSF (100 ng/ml; Roche) in order to up regulate dopamine receptor levels. To evaluate the effect of increased dopamine receptor activity, the semi solid cultures were supplemented with dopamine agonist SKF (1 μM) or 7-OH-DPAT (100 nM) or with medium as a control.\nNext, the effect of the adrenergic neurotransmitters epinephrine (10 nM) and norepinephrine (1 and 10 nM) on proliferation of human CD34+ cells was assessed. The experimental conditions were similar to those conducted with the dopamine agonists. For colony assay, epinephrine and norepinephrine were added to the methyl cellulose. […] For engraftment assay, cells were incubated for 2 days in RPMI supplemented with GM-CSF 5 ng/ml."}, "human CD34+ cells [2]": {"system": "human CD34+ cells", "test": "Engraftment of ex-vivo treated human CD34+ cells in bone marrow of irradiated NOD/SCID mice", "details": "for engraftment in the murine BM compared to control cells: MPB CD34+ cells incubated 2-4 days with 1 μM SKF or 100 ng/ml 7-OH-DPAT before injection, human CD45 in BM 5 weeks post injection; for engraftment of human CD34+ cells in NOD/SCID mice: cord blood CD34+ cells incubated 2 days with GM-CSF 5 ng/ml with or without the neurotransmitter prior to injection", "method": "(ii) Mice. […] Eight-ten week old mice were sublethally irradiated (375 cGy, from a 60 Co source) and transplanted with human cells as indicated (2×10^5 cells/mouse) 24 hours post irradiation.\n(iii) Cell transplantation. Cells were injected into the tail vein of NOD/SCID in 0.5 ml of RPMI supplemented with 10% FCS.\n(iv) Assessment of cell engraftment. Recipient mice were irradiated with a sublethal (350 cGy) dose from a Cesium source 24 hours prior to injection of cells. MPB or CB CD34^+ cells (2-3×10^5/mouse) were treated with SKF or 7-OH-DPAT for 2-4 days and injected i.v. into NOD/SCID mice. Mice were sacrificed 5-6 weeks post transplantation of human cells for assessing human cell engraftment assessment. BM (femur, tibia and pelvis bones flushed with a syringe), spleen, and peripheral blood cells were harvested and resuspended into single cell suspensions. WBCs were counted and in some experiments MNCs were isolated from samples by standard separation on Ficol-Hypaque (Pharmacia Biotech). Human cell engraftment was assayed by flow cytometry (FACSCalibur, BD). Cells were triple-stained with CD45-FITC, CD38-PE and CD34-APC (Becton Dickinson) antibodies. Human plasma and mouse IgG were used to block Fc receptors. Human leukocytes were gated according to their expression of the pan-leukocyte marker CD45, and amongst this population the percentage of CD34^+/CD38^−/low primitive cells was determined.\nTo assess the effect of dopamine receptor on engraftment of stem cells, mobilized peripheral blood (MPB) enriched human CD34^+ cells treated ex-vivo with the dopamine agonists SKF or 7-OH-DPAT were transplanted in NOD/SCID mice and engraftment of human cell in the murine BM was determined. Briefly, 1-3×10^5 MPB CD34^+ cells were incubated for 2-4 days at 37° C. in RPMI supplemented with 10% FCS, penicillin streptomycin and L-Glutamine and treated with the dopamine receptor agonists (1 μM) SKF or (100 ng/ml) 7-OH-DPAT or were left untreated. After the incubation, the cells were injected in irradiated NOD/SCID mice. The mice were sacrificed 5 weeks post injection, BM was extracted and the BM cells were labeled for the human CD45 marker.\nThe experimental conditions were similar to those conducted with the dopamine agonists. […] For engraftment assay, cells were incubated for 2 days in RPMI supplemented with GM-CSF 5 ng/ml."}, "cord blood CD34+ cells [3]": {"system": "cord blood CD34+ cells", "test": "Polarization of CB CD34+ cells upon adhesion to hyaluronic acid", "format": "cell-based, human", "details": "CB CD34+ cells on HA-coated cover slips, 2 hours at 37° C.", "method": "Enriched CB CD34^+ cells (1×10^5 to 2×10^5 cells per well) were plated on HA-coated cover slips for 2 hours at 37° C., either untreated or treated with SKF or 7-OH-DPAT. Samples were processed for microscopic observation as described (Goichberg et al., 2001). In brief, the adherent cells were fixed with 3% paraformaldehyde (Merck, Darmstadt, Germany) and, if indicated, permeabilized in 0.5% Triton X-100 (Sigma-Aldrich). Samples were indirectly immunolabeled at room temperature in a humidified chamber with using purified polyclonal rabbit anti human Dopamine D5 antibodies (Calbiochem, Nottingham, UK) (MCAP89; Serotec). The secondary antibodies used were Goat anti rabbit Alexa 488 conjugated (Molecular Probes, Eugene Oreg.). Phalloidin—TRITC used to detect polymerized actin, was purchased from Sigma-Aldrich. Following labeling, cells were mounted in Elvanol (Mowiol 4-88, Hoechst, Frankfurt, Germany). Immunofluorescence images were acquired using scientific-grade CCD camera and processed by the Delta Vision system using Resolve 3D software (Applied Precision, Issaquah, Wash.).\nWe assessed changes in morphology of cord blood CD34^+ cells upon adhesion to hyaluronic in the presence or the absence of the dopamine agonists SFK or 7-OH-DPAT."}, "[4]": {"system": "murine bone marrow mononuclear cells", "test": "Spontaneous migration of bone marrow mononuclear cells from treated mice", "format": "in vivo", "details": "cells from mice treated with G-CSF plus agonist compared to G-CSF alone"}, "BM cells": {"system": "BM cells", "test": "Bone marrow cellularity (WBC) after 5 daily i.p. injections in mice", "format": "in vivo", "details": "WBC on day 5, 4 hrs after last injection", "experimental": "For this purpose, mice were injected with 5 daily i.p injections of the dopamine agonist 7-OH-DPAT (1.5 mg/kg) or antagonist flupenthixol 5 (3 mg/kg) or remained untreated and the bone marrow cell mass was determined. On day 5, 4 hrs after last injection, mice were sacrificed, BM cells were flushed from BM (with a syringe), and White Blood Count (WBC) was determined."}, "human CD34+ cells [5]": {"system": "human CD34+ cells", "experimental": "(viii) Chemotaxis assays. Chemotaxis experiments were assayed using transwells (6.5 mm diameter, 5 μm pore; Corning Inc., Corning, N.Y.) as previously described (1). […] Migrating cells were counted using FACSCalibur (Becton Dickinson).\nWe tested the effect of dopamine (1 nM-1 uM) on in vitro migration potential of immature human CD34^+ cells (50,000-100,000 cells in 100 ul). […] Since dopamine is highly oxidative, its agonists were used, particularly in treatments requiring longer incubation periods (FIG. 6D)."}, "[6]": {"system": "dopamine receptors 3 and 5 in CD34+/CD38-/low cells", "test": "In vitro 3-day incubation with GM-CSF, dopamine receptor staining", "format": "cell-based, human", "details": "3-day incubation with GM-CSF 5 ng/ml; MPB, normal BM or cord blood cells", "experimental": "(§1) (vi) Flow cytometry analysis. Phenotypes of human and murine cells were examined by immunostaining, followed by flow cytometry analysis on FACSCalibur (Becton Dickinson, San Jose, Calif.) with CellQuest software. Single cell suspension were prepared in PBS containing 0.01% sodium azide and 1% FCS. Human plasma and mouse IgG were used to block human and murine Fc-receptors. Isotype-matched control antibodies were used to exclude false positive cells. Staining was performed in 4° C. for 30 minutes. Engraftment of human cells was examined by staining with mouse anti-human CD45-Fitc, CD38-PE and CD34-APC (Becton Dickinson). Human leukocytes were gated according to their expression of the pan-leukocyte marker CD45, and amongst this population the percentage of CD34+/CD38−/low primitive cells was determined. In several experiments dopamine receptor expression on CD34+/CD38−/low was tested, cells were triple stained with mouse anti-human CD38-PE, CD34-APC and rabbit anti human dopamine receptor 3 or 5 (Calbiochem, Nottingham, UK) followed by secondary antibodies goat anti rabbit alexa 488 (Molecular Probes, Eugene, Oreg.). After staining, cells were washed in FACS buffer and analyzed by fluorescence-activated cell sorting (FACSCalibur and CellQuest software, Becton Dickinson). […]"}, "[7]": {"system": "dopamine receptors type 3 and 5 on the surface of CD34+ enriched cells", "test": "Flow cytometry of dopamine receptor expression on CD34+ cells from BM of G-CSF treated or untreated donors", "format": "in vivo, human", "details": "CD34+ cells from BM of G-CSF treated healthy donors vs BM of untreated healthy donors", "description": "(i) Human cells and reagents. Human cord blood (CB), adult G-CSF mobilized peripheral blood (MPBL) and BM from normal or G-CSF treated donors mononuclear cells were obtained after informed consent in accordance with procedures approved by the human ethics committee of the Weizmann Institute of Science. The cell surface protein CD34 is frequently used as a marker for positive selection of human hematopoietic stem/progenitor cells in research and in transplantation. CD34^+ cell enrichment was performed using magnetic bead separation as previously described (Spiegel A et al Blood 2004; 2900-7). Cells were cultured in RPMI 1640 medium supplemented with 10% heat-inactivated FCS, antibiotics and glutamine.\nHuman CB cells were obtained from full-term deliveries after informed consent. Blood samples were diluted 1:1 in PBS. […]\n(vi) Flow cytometry analysis. […] Human leukocytes were gated according to their expression of the pan-leukocyte marker CD45, and amongst this population the percentage of CD34+/CD38−/low primitive cells was determined. […] After staining, cells were washed in FACS buffer and analyzed by fluorescence-activated cell sorting (FACSCalibur and CellQuest software, Becton Dickinson).\nExpression of dopamine receptors type 3 and 5 was evaluated on the surface of CD34^+ enriched cells that were obtained from different sources. […]"}, "[8]": {"system": "dopamine receptor 3 and 5 on human CD34+/CD38-/low cells", "test": "Dopamine receptor expression on human cells from BM of G-CSF treated chimeric NOD/SCID mice", "format": "in vivo, human cells in NOD/SCID mice", "details": "5 daily s.c. injections of G-CSF", "experimental": "Mobilization in NOD/SCID mice engrafted with human cells was performed as follows: mice received a daily subcutaneous injection of G-CSF (Filgrastim, […] in […] 0.9% NaCl, 5% fetal calf serum (FCS), pH 4.55) for 5 consecutive days and were sacrificed 4 hrs after the last injection. Peripheral blood from mice asphyxied with dry ice was collected by cardiac aspiration in heparinized tubes. Number of WBC in the peripheral blood was determined.\nas §1, with “Engraftment of human cells was examined by staining with mouse anti-human CD45-Fitc, CD38-PE and CD34-APC (Becton Dickinson).” left out, “In several experiments dopamine receptor expression on CD34+/CD38−/low was tested, cells were triple stained with mouse anti-human CD38-PE, CD34-APC and rabbit anti human dopamine receptor 3 or 5 (Calbiochem, Nottingham, UK) followed by secondary antibodies goat anti rabbit alexa 488 (Molecular Probes, Eugene, Oreg.).” left out"}, "[9]": {"system": "beta-2 adrenergic receptor on CD34+ cells", "test": "Flow cytometry of beta-2 adrenergic receptor on CD34+ cells", "parameters": "species or system human", "details": "in vivo G-CSF stimulated (mobilized) peripheral blood CD34+ cells", "description": "We carried out experiments in order to test whether CD34+ cells are regulated by additional catecholamines neurotransmitters."}}}
{"molecule": "Cl.Oc1cc2c(cc1O)C(c1ccccc1)CNCC2", "note": "(single isomer, unassigned; (+)) [SKF, (+)-1-phenyl-2,3,4,5-tetrahydro(1H)-3-benzazepine-7,8-diol hydrochloride]", "values": [{"measurement": "colony (CFU-C) formation in the presence of GM-CSF", "setting": "cord blood CD34+ cells [1]; CB CD34+ cells, Epo, SCF", "result": "augmented"}, {"measurement": "colony formation, culture not supplemented with myeloid cytokines", "setting": "cord blood CD34+ cells [1]; CB CD34+ cells", "result": "No increase"}, {"measurement": "engraftment in the murine BM compared to control cells", "setting": "human CD34+ cells [2]", "result": 2, "unit": "fold"}, {"measurement": "percent of cells that exhibited polarized morphology compared to control", "setting": "cord blood CD34+ cells [3]", "result": "more than doubled"}, {"measurement": "spontaneous migration of murine bone marrow mononuclear cells", "setting": "[4]", "result": "higher spontaneous migration"}]}
{"molecule": "CCCN(CCC)C1CCc2ccc(O)cc2C1", "note": "(stereo not shown) [7-OH-DPAT, 7-hydroxy-2-dipropylaminotetralin]", "values": [{"measurement": "colony formation in the presence of G-CSF", "setting": "cord blood CD34+ cells [1]; CB CD34+ cells, Epo, SCF, IL-3 plus G-CSF 100 ng/ml, 7-OH-DPAT 100 nM", "result": "the largest increase"}, {"measurement": "colony (CFU-C) formation in the presence of GM-CSF", "setting": "cord blood CD34+ cells [1]; CB CD34+ cells, Epo, SCF", "result": "increased colony formation"}, {"measurement": "colony formation, culture not supplemented with myeloid cytokines", "setting": "cord blood CD34+ cells [1]; CB CD34+ cells", "result": "No increase"}, {"measurement": "engraftment in the murine BM compared to control cells", "setting": "human CD34+ cells [2]", "result": 2, "unit": "fold"}, {"measurement": "increase in BM cellularity", "setting": "BM cells; 7-OH-DPAT 1.5 mg/kg", "result": 50, "unit": "%"}, {"measurement": "percent of cells that exhibited polarized morphology compared to control", "setting": "cord blood CD34+ cells [3]", "result": "more than doubled"}, {"measurement": "spontaneous migration of murine bone marrow mononuclear cells", "setting": "[4]", "result": "higher spontaneous migration"}]}
{"molecule": "CN1CCN(C2=Nc3cc(Cl)ccc3Nc3ccccc32)CC1", "note": "[clozapine]", "values": [{"measurement": "decrease in engraftment", "setting": "human CD34+ cells [2]; MPB CD34+ cells pretreated with antagonist prior to injection, 5 weeks", "result": 50, "unit": "%"}]}
{"molecule": "NCCc1ccc(O)c(O)c1", "note": "[dopamine]", "values": [{"measurement": "migration of cord blood CD34+ enriched cells towards dopamine in the lower chamber", "setting": "human CD34+ cells [5]; cells pre-treated with GM-CSF, dopamine 10 nM (tested 1 nM-1 uM)", "result": "significantly increased"}, {"measurement": "migration of cord blood CD34+ cells towards dopamine, cells not pre-treated with GM-CSF", "setting": "human CD34+ cells [5]; no GM-CSF pre-treatment, data not shown", "result": "not detected"}]}
{"molecule": "CNC[C@H](O)c1ccc(O)c(O)c1", "note": "[epinephrine]", "values": [{"measurement": "clonogenic capacity of human cord blood CD34+ cells", "setting": "cord blood CD34+ cells [1]", "result": "increase the clonogenic capacity"}, {"measurement": "engraftment of human CD34+ cells in NOD/SCID mice", "setting": "human CD34+ cells [2]", "result": "enhance engraftment"}]}
{"molecule": "OCCN1CCN(CCC=C2c3ccccc3Sc3ccc(C(F)(F)F)cc32)CC1", "note": "[flupenthixol, 2-[4-[3-[2-(trifluoromethyl)thioxanthen-9-ylidene]propyl]piperazin-1-yl]ethanol]", "values": [{"measurement": "decrease in BM cellularity", "setting": "BM cells; flupenthixol 3 mg/kg", "result": 25, "unit": "%"}]}
{"molecule": "NC[C@H](O)c1ccc(O)c(O)c1", "note": "[norepinephrine]", "values": [{"measurement": "clonogenic capacity of human cord blood CD34+ cells", "setting": "cord blood CD34+ cells [1]", "result": "increase the clonogenic capacity"}, {"measurement": "engraftment of human CD34+ cells in NOD/SCID mice", "setting": "human CD34+ cells [2]", "result": "enhance engraftment"}, {"measurement": "migration of CD34+ cells towards norepinephrine in the lower well", "setting": "human CD34+ cells [5]; CB (GM-CSF pretreated) or MPB CD34+ cells, 1 or 10 nM norepinephrine", "result": "increased migration"}]}
{"molecule": "GM-CSF: myeloid cytokine, granulocyte/macrophage-colony stimulating factor", "values": [{"measurement": "levels of dopamine receptors 3 and 5 in CD34+/CD38-/low cells", "setting": "[6]", "result": "up regulated"}]}
{"molecule": "B1", "values": [{"measurement": "expression of dopamine receptor on the surface of enriched CD34+ cells, higher than untreated donors", "setting": "[7]", "result": "2-4 folds"}, {"measurement": "level of dopamine receptor expression in the CD34+/CD38-/low cell population", "setting": "[8]", "result": "increase"}, {"measurement": "levels of β2-adrenergic receptor on CD34+ cells", "setting": "[9]", "result": "higher levels"}]}
